The kinase profiling compilation of Christmann-Franck et al. (2016)

Key:
Experiment in all cases: radiometric filter-binding kinase assay
[1] = molecular target: MST4 (human) (UniProt Q9P289); conditions: compound 100.0 µM; ATP 20 µM
[2] = molecular target: PRKAA1 PRKAB2 PRKAG1 (human) (UniProt O43741+Q13131+P54619); conditions: compound 100.0 µM; ATP 20 µM
[3] = molecular target: HIPK2 (human) (UniProt Q9H2X6); conditions: compound 100.0 µM; ATP 5 µM
[4] = molecular target: PRKCZ (human) (UniProt Q05513); conditions: compound 100.0 µM; ATP 5 µM
[5] = molecular target: MAPK12 (human) (UniProt P53778); conditions: compound 100.0 µM; ATP 5 µM
[6] = molecular target: MARK2 (human) (UniProt Q7KZI7); conditions: compound 100.0 µM; ATP 20 µM
[7] = molecular target: MAP3K11 (human) (UniProt Q16584); conditions: compound 100.0 µM; ATP 20 µM
[8] = molecular target: BRSK2 (human) (UniProt Q8IWQ3); conditions: compound 100.0 µM; ATP 50 µM
[9] = molecular target: CDK2 CCNA2 (human) (UniProt P20248+P24941); conditions: compound 100.0 µM; ATP 20 µM
[10] = molecular target: IKBKB (human) (UniProt O14920); conditions: compound 100.0 µM; ATP 5 µM
[11] = molecular target: CaMK1 (human) (UniProt Q14012); conditions: compound 100.0 µM; ATP 50 µM
[12] = molecular target: MELK (human) (UniProt Q14680); conditions: compound 100.0 µM; ATP 50 µM
[13] = molecular target: NEK6 (human) (UniProt Q9HC98); conditions: compound 100.0 µM; ATP 50 µM
[14] = molecular target: PKN2 (human) (UniProt Q16513); conditions: compound 100.0 µM; ATP 5 µM
[15] = molecular target: SYK (human) (UniProt P43405); conditions: compound 100.0 µM; ATP 20 µM
[16] = molecular target: IGF1R (human) (UniProt P08069); conditions: compound 100.0 µM; ATP 5 µM
[17] = molecular target: CLK2 (human) (UniProt P49760); conditions: compound 100.0 µM; ATP 5 µM
[18] = molecular target: INSRR (human) (UniProt P14616); conditions: compound 100.0 µM; ATP 5 µM
[19] = molecular target: MAPK1 (human) (UniProt P28482); conditions: compound 100.0 µM; ATP 20 µM
[20] = molecular target: PRKCA (human) (UniProt P17252); conditions: compound 100.0 µM; ATP 20 µM
[21] = molecular target: PAK4 (human) (UniProt O96013); conditions: compound 100.0 µM; ATP 5 µM
[22] = molecular target: MAPK10 (human) (UniProt P53779); conditions: compound 100.0 µM; ATP 20 µM
[23] = molecular target: PIM2 (human) (UniProt Q9P1W9); conditions: compound 100.0 µM; ATP 5 µM
[24] = molecular target: INSR (human) (UniProt P06213); conditions: compound 100.0 µM; ATP 20 µM
[25] = molecular target: EPHB3 (human) (UniProt P54753); conditions: compound 100.0 µM; ATP 20 µM
[26] = molecular target: NTRK1 (human) (UniProt P04629); conditions: compound 100.0 µM; ATP 20 µM
[27] = molecular target: STK33 (human) (UniProt Q9BYT3); conditions: compound 100.0 µM; ATP 50 µM
[28] = molecular target: EPHB1 (human) (UniProt P54762); conditions: compound 100.0 µM; ATP 20 µM
[29] = molecular target: IKBKE (human) (UniProt Q14164); conditions: compound 100.0 µM; ATP 50 µM
[30] = molecular target: CAMKK2 (human) (UniProt Q96RR4); conditions: compound 100.0 µM; ATP 20 µM
[31] = molecular target: HIPK1 (human) (UniProt Q86Z02); conditions: compound 100.0 µM; ATP 20 µM
[32] = molecular target: GSK3B (human) (UniProt P49841); conditions: compound 100.0 µM; ATP 5 µM
[33] = molecular target: EPHA2 (human) (UniProt P29317); conditions: compound 100.0 µM; ATP 50 µM
[34] = molecular target: MAP3K7 TAB1 (human) (UniProt Q15750+O43318); conditions: compound 100.0 µM; ATP 5 µM
[35] = molecular target: STK11 CAB39 STRADA (human) (UniProt Q9Y376+Q7RTN6+Q15831); conditions: compound 100.0 µM; ATP 20 µM

Chain of MAP3K11 (human) (Q16584 whole entry, looked up): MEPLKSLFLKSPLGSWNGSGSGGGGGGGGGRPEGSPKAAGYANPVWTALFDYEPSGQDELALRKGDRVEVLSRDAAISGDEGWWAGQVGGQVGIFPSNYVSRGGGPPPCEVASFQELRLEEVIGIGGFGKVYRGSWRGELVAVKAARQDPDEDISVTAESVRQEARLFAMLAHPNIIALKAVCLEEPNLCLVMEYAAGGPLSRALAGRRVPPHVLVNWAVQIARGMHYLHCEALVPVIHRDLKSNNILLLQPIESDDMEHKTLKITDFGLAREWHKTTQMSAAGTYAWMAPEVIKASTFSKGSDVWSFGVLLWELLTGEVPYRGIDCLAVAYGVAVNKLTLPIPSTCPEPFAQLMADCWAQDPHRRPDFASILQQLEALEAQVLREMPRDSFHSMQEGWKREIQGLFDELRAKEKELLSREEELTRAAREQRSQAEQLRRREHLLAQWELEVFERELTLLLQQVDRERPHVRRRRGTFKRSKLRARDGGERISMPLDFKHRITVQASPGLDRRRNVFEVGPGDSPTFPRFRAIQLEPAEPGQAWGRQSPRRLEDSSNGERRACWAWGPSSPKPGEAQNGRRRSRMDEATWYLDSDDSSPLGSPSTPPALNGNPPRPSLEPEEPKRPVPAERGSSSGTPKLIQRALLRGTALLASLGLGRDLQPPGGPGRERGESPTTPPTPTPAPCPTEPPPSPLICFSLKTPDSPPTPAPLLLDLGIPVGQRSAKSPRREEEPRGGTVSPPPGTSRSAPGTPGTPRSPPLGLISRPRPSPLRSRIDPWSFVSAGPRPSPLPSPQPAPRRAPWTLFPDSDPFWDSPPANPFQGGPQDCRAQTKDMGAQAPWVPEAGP
Chain of IGF1R (human) (P08069 whole entry, looked up): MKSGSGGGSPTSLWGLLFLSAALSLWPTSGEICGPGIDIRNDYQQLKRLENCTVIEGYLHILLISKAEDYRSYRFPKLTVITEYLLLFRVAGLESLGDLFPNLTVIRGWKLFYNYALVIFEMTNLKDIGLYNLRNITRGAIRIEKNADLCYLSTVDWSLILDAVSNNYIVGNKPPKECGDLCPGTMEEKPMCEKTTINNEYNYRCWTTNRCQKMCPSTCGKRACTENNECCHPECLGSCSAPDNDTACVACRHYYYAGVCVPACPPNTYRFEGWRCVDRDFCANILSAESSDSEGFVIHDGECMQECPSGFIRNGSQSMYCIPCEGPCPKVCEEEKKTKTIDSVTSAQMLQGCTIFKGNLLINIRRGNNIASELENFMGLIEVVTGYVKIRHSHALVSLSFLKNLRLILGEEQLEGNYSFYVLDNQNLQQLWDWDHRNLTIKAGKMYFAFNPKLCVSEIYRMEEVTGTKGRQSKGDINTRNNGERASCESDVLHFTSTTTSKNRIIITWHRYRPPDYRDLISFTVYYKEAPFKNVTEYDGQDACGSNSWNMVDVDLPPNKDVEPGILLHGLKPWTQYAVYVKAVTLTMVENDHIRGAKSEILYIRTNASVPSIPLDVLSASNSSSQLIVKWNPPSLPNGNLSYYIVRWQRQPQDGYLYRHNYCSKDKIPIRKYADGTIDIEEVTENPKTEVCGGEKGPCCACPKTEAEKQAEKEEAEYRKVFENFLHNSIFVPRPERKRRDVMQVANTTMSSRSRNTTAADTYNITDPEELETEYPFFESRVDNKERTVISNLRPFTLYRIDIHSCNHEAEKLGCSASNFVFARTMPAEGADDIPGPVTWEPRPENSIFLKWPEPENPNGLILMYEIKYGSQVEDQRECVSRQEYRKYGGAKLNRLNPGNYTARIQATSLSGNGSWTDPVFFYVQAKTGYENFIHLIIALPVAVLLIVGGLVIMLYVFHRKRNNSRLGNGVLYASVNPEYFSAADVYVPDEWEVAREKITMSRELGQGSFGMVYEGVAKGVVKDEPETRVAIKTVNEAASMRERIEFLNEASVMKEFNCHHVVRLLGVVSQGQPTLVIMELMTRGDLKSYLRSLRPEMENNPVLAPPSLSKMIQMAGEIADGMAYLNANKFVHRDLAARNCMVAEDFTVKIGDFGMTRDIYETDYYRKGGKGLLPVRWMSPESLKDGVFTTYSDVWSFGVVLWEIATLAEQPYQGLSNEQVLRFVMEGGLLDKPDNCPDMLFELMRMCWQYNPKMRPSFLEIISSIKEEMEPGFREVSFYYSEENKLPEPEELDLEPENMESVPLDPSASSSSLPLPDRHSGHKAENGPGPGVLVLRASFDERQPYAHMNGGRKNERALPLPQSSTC
Chain of INSRR (human) (P14616 whole entry, looked up): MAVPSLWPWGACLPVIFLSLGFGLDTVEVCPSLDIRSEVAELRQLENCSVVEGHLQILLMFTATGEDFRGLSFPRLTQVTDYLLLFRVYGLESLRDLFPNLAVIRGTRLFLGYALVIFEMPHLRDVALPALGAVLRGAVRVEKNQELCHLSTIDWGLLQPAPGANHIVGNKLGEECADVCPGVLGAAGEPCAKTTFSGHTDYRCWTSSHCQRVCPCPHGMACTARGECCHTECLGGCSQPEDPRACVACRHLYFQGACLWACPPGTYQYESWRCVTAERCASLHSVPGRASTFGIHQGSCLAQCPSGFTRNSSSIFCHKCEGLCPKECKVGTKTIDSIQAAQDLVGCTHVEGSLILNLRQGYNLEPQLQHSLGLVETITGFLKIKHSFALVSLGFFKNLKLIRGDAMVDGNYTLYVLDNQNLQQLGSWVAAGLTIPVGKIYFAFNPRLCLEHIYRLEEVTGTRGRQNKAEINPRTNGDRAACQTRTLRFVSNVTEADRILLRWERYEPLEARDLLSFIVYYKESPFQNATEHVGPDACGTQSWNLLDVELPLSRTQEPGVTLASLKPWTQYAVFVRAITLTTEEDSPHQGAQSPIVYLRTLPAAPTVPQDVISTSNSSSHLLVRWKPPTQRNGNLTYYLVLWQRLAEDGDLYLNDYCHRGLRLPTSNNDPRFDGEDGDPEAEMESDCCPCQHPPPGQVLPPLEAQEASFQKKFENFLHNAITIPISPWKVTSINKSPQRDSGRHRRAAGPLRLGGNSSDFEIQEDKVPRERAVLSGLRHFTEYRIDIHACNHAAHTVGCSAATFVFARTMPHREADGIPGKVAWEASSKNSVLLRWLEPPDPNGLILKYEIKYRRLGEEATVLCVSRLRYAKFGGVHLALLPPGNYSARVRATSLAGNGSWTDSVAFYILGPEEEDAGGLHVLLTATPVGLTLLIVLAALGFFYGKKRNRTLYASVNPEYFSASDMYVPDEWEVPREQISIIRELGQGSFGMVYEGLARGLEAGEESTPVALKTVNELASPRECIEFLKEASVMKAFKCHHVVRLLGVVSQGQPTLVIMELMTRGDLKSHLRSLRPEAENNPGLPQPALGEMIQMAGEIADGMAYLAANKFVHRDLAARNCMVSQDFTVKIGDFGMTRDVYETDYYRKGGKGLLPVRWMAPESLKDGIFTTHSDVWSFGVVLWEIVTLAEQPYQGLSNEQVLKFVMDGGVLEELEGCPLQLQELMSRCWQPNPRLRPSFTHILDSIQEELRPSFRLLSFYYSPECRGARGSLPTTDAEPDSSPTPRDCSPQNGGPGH
Chain of IKBKE (human) (Q14164 whole entry, looked up): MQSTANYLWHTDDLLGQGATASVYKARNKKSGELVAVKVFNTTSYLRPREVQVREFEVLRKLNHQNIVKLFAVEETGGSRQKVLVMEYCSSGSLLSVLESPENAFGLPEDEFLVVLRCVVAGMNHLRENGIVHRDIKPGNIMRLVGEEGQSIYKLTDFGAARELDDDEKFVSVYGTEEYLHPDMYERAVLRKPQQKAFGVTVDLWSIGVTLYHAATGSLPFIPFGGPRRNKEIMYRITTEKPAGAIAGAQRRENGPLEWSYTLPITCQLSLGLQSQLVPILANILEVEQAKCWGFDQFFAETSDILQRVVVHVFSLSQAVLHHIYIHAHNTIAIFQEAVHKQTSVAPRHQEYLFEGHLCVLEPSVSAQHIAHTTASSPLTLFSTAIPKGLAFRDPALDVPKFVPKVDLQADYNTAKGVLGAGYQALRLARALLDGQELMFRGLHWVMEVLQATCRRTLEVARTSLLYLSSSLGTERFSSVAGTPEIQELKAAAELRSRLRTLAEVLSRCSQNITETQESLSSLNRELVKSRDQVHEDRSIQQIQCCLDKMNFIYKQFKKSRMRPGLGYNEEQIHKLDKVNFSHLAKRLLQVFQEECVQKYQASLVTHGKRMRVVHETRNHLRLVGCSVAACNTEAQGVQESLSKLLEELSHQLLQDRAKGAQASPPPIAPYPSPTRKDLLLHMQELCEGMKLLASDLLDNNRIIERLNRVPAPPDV
Chain of NTRK1 (human) (P04629 whole entry, looked up): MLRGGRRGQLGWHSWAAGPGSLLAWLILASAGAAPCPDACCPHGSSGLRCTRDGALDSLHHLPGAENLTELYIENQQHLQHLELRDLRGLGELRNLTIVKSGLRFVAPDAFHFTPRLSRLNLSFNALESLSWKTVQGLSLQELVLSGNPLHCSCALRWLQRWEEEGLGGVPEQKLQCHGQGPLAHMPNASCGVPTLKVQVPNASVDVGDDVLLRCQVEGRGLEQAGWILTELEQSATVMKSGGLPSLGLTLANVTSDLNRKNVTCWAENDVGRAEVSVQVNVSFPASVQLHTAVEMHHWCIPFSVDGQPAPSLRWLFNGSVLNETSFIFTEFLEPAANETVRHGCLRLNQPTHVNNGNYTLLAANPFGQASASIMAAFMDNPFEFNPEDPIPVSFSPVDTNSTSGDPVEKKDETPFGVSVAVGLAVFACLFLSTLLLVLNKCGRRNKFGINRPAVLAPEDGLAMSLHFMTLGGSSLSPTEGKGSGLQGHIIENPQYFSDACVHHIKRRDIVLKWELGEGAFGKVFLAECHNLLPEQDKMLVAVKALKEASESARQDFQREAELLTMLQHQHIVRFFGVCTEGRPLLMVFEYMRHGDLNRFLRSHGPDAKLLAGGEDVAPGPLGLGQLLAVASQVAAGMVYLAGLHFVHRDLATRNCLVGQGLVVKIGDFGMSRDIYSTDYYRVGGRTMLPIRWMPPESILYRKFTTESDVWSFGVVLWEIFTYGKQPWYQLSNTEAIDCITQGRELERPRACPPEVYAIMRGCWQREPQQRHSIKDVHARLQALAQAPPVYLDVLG

Row | SMILES | inhibition [1] | inhibition [2] | inhibition [3] | inhibition [4] | inhibition [5] | inhibition [6] | inhibition [7] | inhibition [8] | inhibition [9] | inhibition [10] | inhibition [11] | inhibition [12] | inhibition [13] | inhibition [14] | inhibition [15] | inhibition [16] | inhibition [17] | inhibition [18] | inhibition [19] | inhibition [20] | other results
1 | O=C(c1cccc(-c2cc3c(=O)[nH]cnc3s2)c1)N1CCOCC1 | 12% | 50% | 38% | 0% | 0% | 0% | 23% | 30% | 10% | 37% | 75% | 25% | 44% | 0% | 0% | 0% | 46% | 0% | 1% | 21% | inhibition [21]: 34%; inhibition [22]: 7%; inhibition [23]: 13%; inhibition [24]: 0%; inhibition [25]: 6%; inhibition [26]: 41%; inhibition [27]: 0%; inhibition [28]: 0%; inhibition [29]: 36%; inhibition [30]: 0%; inhibition [31]: 10%; inhibition [32]: 70%; inhibition [33]: 37%; inhibition [34]: 78%; inhibition [35]: 0%
2 | Nc1nc2cnc(-c3ccccc3)cn2n1 | 41% | 7% | 57% | 13% | 1% | 2% | 89% | 28% | 54% | 27% | 41% | 13% | 1% | 44% | 84% | 91% | 74% | 71% | 47% | 2% | inhibition [21]: 89%; inhibition [22]: 47%; inhibition [23]: 16%; inhibition [24]: 97%; inhibition [25]: 54%; inhibition [26]: 61%; inhibition [27]: 20%; inhibition [28]: 48%; inhibition [29]: 39%; inhibition [30]: 54%; inhibition [31]: 28%; inhibition [32]: 72%; inhibition [33]: 28%; inhibition [34]: 86%; inhibition [35]: 2%
3 | COc1ccc(NC(=S)Nc2cnc3[nH]cnn3c2=O)cn1 | 0% | 0% | 1% | 0% | 0% | 0% | 0% | 34% | 0% | 0% | 0% | 0% | 3% | 1% | 9% | 0% | 1% | 0% | 13% | 23% | inhibition [21]: 15%; inhibition [22]: 0%; inhibition [23]: 0%; inhibition [24]: 0%; inhibition [25]: 8%; inhibition [26]: 0%; inhibition [27]: 15%; inhibition [28]: 1%; inhibition [29]: 0%; inhibition [30]: 0%; inhibition [31]: 0%; inhibition [32]: 2%; inhibition [33]: 0%; inhibition [34]: 2%; inhibition [35]: 0%
4 | CC(=O)Nc1nc2cnc(-c3ccccc3)cn2n1 | 16% | 14% | 49% | 11% | 24% | 18% | 17% | 20% | 34% | 10% | 17% | 17% | 21% | 13% | 31% | 11% | 79% | 60% | 7% | 0% | inhibition [21]: 47%; inhibition [22]: 11%; inhibition [23]: 11%; inhibition [24]: 60%; inhibition [25]: 32%; inhibition [26]: 28%; inhibition [27]: 5%; inhibition [28]: 22%; inhibition [29]: 23%; inhibition [30]: 41%; inhibition [31]: 16%; inhibition [32]: 73%; inhibition [33]: 0%; inhibition [34]: 30%; inhibition [35]: 0%
